{
  "source": "PubChem BioAssay AID2060888",
  "about": "(Molecular Pharmacology Branch, DTP, NCI, 2025)",
  "tested_on": "695427-040-R-J1-PDC complex spheroid viability",
  "test": "Anticancer human tumor 695427-040-R-J1-PDC patient-derived colon adenocarcinoma cell line growth inhibition [RAS]",
  "conditions": "for pIC50: curve of first compound; for viability, T/C: stronger effect = lower value",
  "outline": "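Tumour cells grown as complex spheroids with HUVEC endothelial cells and mesenchymal stem cells, treated with RAS pathway inhibitor combinations. Each agent spans half-log steps from near clinical Cmax, or 10 microM where Cmax is unknown.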",
  "key": {"[1]": {"conditions": "second compound 0.000949 µM, first compound 0.0316 µM"}, "[2]": {"conditions": "second compound 0.000949 µM, first compound 0.1 µM"}, "[3]": {"conditions": "second compound 0.000949 µM, first compound 0.316 µM"}, "[4]": {"conditions": "second compound 0.000949 µM, first compound 1 µM"}, "[5]": {"conditions": "second compound 0.000949 µM, first compound 3.16 µM"}, "[6]": {"conditions": "second compound 0.000949 µM, first compound 10 µM"}, "[7]": {"conditions": "second compound 0.003 µM, first compound 0.0316 µM"}, "[8]": {"conditions": "second compound 0.003 µM, first compound 0.1 µM"}, "[9]": {"conditions": "second compound 0.003 µM, first compound 0.316 µM"}, "[10]": {"conditions": "second compound 0.003 µM, first compound 1 µM"}, "[11]": {"conditions": "second compound 0.003 µM, first compound 3.16 µM"}, "[12]": {"conditions": "second compound 0.003 µM, first compound 10 µM"}, "[13]": {"conditions": "second compound 0.00949 µM, first compound 0.0316 µM"}, "[14]": {"conditions": "second compound 0.00949 µM, first compound 0.1 µM"}, "[15]": {"conditions": "second compound 0.00949 µM, first compound 0.316 µM"}, "[16]": {"conditions": "second compound 0.00949 µM, first compound 1 µM"}, "[17]": {"conditions": "second compound 0.00949 µM, first compound 3.16 µM"}, "[18]": {"conditions": "second compound 0.00949 µM, first compound 10 µM"}, "[19]": {"conditions": "second compound 0.03 µM, first compound 0.0316 µM"}, "[20]": {"conditions": "second compound 0.03 µM, first compound 0.1 µM"}, "[21]": {"conditions": "second compound 0.03 µM, first compound 0.316 µM"}, "[22]": {"conditions": "second compound 0.03 µM, first compound 1 µM"}, "[23]": {"conditions": "second compound 0.03 µM, first compound 3.16 µM"}, "[24]": {"conditions": "second compound 0.03 µM, first compound 10 µM"}, "[25]": {"conditions": "second compound 0.0949 µM, first compound 0.0316 µM"}, "[26]": {"conditions": "second compound 0.0949 µM, first compound 0.1 µM"}, "[27]": {"conditions": "second compound 0.0949 µM, first compound 0.316 µM"}, "[28]": {"conditions": "second compound 0.0949 µM, first compound 1 µM"}, "[29]": {"conditions": "second compound 0.0949 µM, first compound 3.16 µM"}, "[30]": {"conditions": "second compound 0.0949 µM, first compound 10 µM"}, "[31]": {"conditions": "second compound 0.3 µM, first compound 0.0316 µM"}, "[32]": {"conditions": "second compound 0.3 µM, first compound 0.1 µM"}, "[33]": {"conditions": "second compound 0.3 µM, first compound 0.316 µM"}, "[34]": {"conditions": "second compound 0.3 µM, first compound 1 µM"}, "[35]": {"conditions": "second compound 0.3 µM, first compound 3.16 µM"}, "[36]": {"conditions": "second compound 0.3 µM, first compound 10 µM"}},
  "note": "pIC50: −log10 of the molar value.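 Also: viability read after seven days of drug exposure.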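 For viability, T/C in this document: 100% = DMSO vehicle control viability.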",
  "data": [
    {"smiles": "CCC(CC)c1cc(NC2CCC(N)C2)n2nccc2n1", "note": "(centres undefined) + CCn1c(-c2cccnc2C(C)OC)c2c3cc(ccc31)N1CCOC(CC(NC(=O)C(C(C)C)N(C)C(=O)C3(F)CCN(C(=O)C#CC(C)(C)N(C)C)CC3)C(=O)N3CCCC(N3)C(=O)OCC(C)(C)C2)C1", "values": [
      {"measurement": "pIC50", "setting": "second compound 0.000949 µM", "result": 5.73},
      {"measurement": "pIC50", "setting": "second compound 0.003 µM", "result": 5.74},
      {"measurement": "pIC50", "setting": "second compound 0.00949 µM", "result": 5.74},
      {"measurement": "pIC50", "setting": "second compound 0.03 µM", "result": 5.72},
      {"measurement": "pIC50", "setting": "second compound 0.0949 µM", "result": 5.78},
      {"measurement": "pIC50", "setting": "second compound 0.3 µM", "result": 5.84},
      {"measurement": "viability, T/C", "setting": "[1]", "result": 82.4, "unit": "%"},
      {"measurement": "viability, T/C", "setting": "[2]", "result": 104, "unit": "%"},
      {"measurement": "viability, T/C", "setting": "[3]", "result": 100, "unit": "%"},
      {"measurement": "viability, T/C", "setting": "[4]", "result": 94.6, "unit": "%"},
      {"measurement": "viability, T/C", "setting": "[5]", "result": 13.2, "unit": "%"},
      {"measurement": "viability, T/C", "setting": "[6]", "result": 12.6, "unit": "%"},
      {"measurement": "viability, T/C", "setting": "[7]", "result": 106, "unit": "%"},
      {"measurement": "viability, T/C", "setting": "[8]", "result": 88.4, "unit": "%"},
      {"measurement": "viability, T/C", "setting": "[9]", "result": 100, "unit": "%"},
      {"measurement": "viability, T/C", "setting": "[10]", "result": 81.5, "unit": "%"},
      {"measurement": "viability, T/C", "setting": "[11]", "result": 20.3, "unit": "%"},
      {"measurement": "viability, T/C", "setting": "[12]", "result": 9.28, "unit": "%"},
      {"measurement": "viability, T/C", "setting": "[13]", "result": 82.2, "unit": "%"},
      {"measurement": "viability, T/C", "setting": "[14]", "result": 82.4, "unit": "%"},
      {"measurement": "viability, T/C", "setting": "[15]", "result": 111, "unit": "%"},
      {"measurement": "viability, T/C", "setting": "[16]", "result": 87.9, "unit": "%"},
      {"measurement": "viability, T/C", "setting": "[17]", "result": 13.3, "unit": "%"},
      {"measurement": "viability, T/C", "setting": "[18]", "result": 10.4, "unit": "%"},
      {"measurement": "viability, T/C", "setting": "[19]", "result": 86.7, "unit": "%"},
      {"measurement": "viability, T/C", "setting": "[20]", "result": 90.8, "unit": "%"},
      {"measurement": "viability, T/C", "setting": "[21]", "result": 97.6, "unit": "%"},
      {"measurement": "viability, T/C", "setting": "[22]", "result": 90.5, "unit": "%"},
      {"measurement": "viability, T/C", "setting": "[23]", "result": 17.7, "unit": "%"},
      {"measurement": "viability, T/C", "setting": "[24]", "result": 12.2, "unit": "%"},
      {"measurement": "viability, T/C", "setting": "[25]", "result": 89.2, "unit": "%"},
      {"measurement": "viability, T/C", "setting": "[26]", "result": 83.1, "unit": "%"},
      {"measurement": "viability, T/C", "setting": "[27]", "result": 86.8, "unit": "%"},
      {"measurement": "viability, T/C", "setting": "[28]", "result": 78.8, "unit": "%"},
      {"measurement": "viability, T/C", "setting": "[29]", "result": 13.3, "unit": "%"},
      {"measurement": "viability, T/C", "setting": "[30]", "result": 11.5, "unit": "%"},
      {"measurement": "viability, T/C", "setting": "[31]", "result": 85.3, "unit": "%"},
      {"measurement": "viability, T/C", "setting": "[32]", "result": 77, "unit": "%"},
      {"measurement": "viability, T/C", "setting": "[33]", "result": 85.2, "unit": "%"},
      {"measurement": "viability, T/C", "setting": "[34]", "result": 68.3, "unit": "%"},
      {"measurement": "viability, T/C", "setting": "[35]", "result": 12.6, "unit": "%"},
      {"measurement": "viability, T/C", "setting": "[36]", "result": 11, "unit": "%"}
    ]},
    {"smiles": "Cc1nc(N2CCC3(CC2)COC(C)C3N)c(CO)nc1Sc1ccnc(N)c1Cl", "note": "(centres undefined) + CCn1c(-c2cccnc2C(C)OC)c2c3cc(ccc31)N1CCOC(CC(NC(=O)C(C(C)C)N(C)C(=O)C3(F)CCN(C(=O)C#CC(C)(C)N(C)C)CC3)C(=O)N3CCCC(N3)C(=O)OCC(C)(C)C2)C1", "values": [
      {"measurement": "pIC50", "setting": "second compound 0.000949 µM", "result": "< 5.00"},
      {"measurement": "pIC50", "setting": "second compound 0.003 µM", "result": "< 5.00"},
      {"measurement": "pIC50", "setting": "second compound 0.00949 µM", "result": "< 5.00"},
      {"measurement": "pIC50", "setting": "second compound 0.03 µM", "result": "< 5.00"},
      {"measurement": "pIC50", "setting": "second compound 0.0949 µM", "result": "< 5.00"},
      {"measurement": "pIC50", "setting": "second compound 0.3 µM", "result": 5.55},
      {"measurement": "viability, T/C", "setting": "[1]", "result": 84.9, "unit": "%"},
      {"measurement": "viability, T/C", "setting": "[2]", "result": 93.2, "unit": "%"},
      {"measurement": "viability, T/C", "setting": "[3]", "result": 75.4, "unit": "%"},
      {"measurement": "viability, T/C", "setting": "[4]", "result": 64.3, "unit": "%"},
      {"measurement": "viability, T/C", "setting": "[5]", "result": 60.4, "unit": "%"},
      {"measurement": "viability, T/C", "setting": "[6]", "result": 61.3, "unit": "%"},
      {"measurement": "viability, T/C", "setting": "[7]", "result": 94.2, "unit": "%"},
      {"measurement": "viability, T/C", "setting": "[8]", "result": 70.6, "unit": "%"},
      {"measurement": "viability, T/C", "setting": "[9]", "result": 71.4, "unit": "%"},
      {"measurement": "viability, T/C", "setting": "[10]", "result": 63.2, "unit": "%"},
      {"measurement": "viability, T/C", "setting": "[11]", "result": 67.1, "unit": "%"},
      {"measurement": "viability, T/C", "setting": "[12]", "result": 47.3, "unit": "%"},
      {"measurement": "viability, T/C", "setting": "[13]", "result": 104, "unit": "%"},
      {"measurement": "viability, T/C", "setting": "[14]", "result": 82, "unit": "%"},
      {"measurement": "viability, T/C", "setting": "[15]", "result": 83.9, "unit": "%"},
      {"measurement": "viability, T/C", "setting": "[16]", "result": 57.8, "unit": "%"},
      {"measurement": "viability, T/C", "setting": "[17]", "result": 67.1, "unit": "%"},
      {"measurement": "viability, T/C", "setting": "[18]", "result": 49.3, "unit": "%"},
      {"measurement": "viability, T/C", "setting": "[19]", "result": 75, "unit": "%"},
      {"measurement": "viability, T/C", "setting": "[20]", "result": 85.8, "unit": "%"},
      {"measurement": "viability, T/C", "setting": "[21]", "result": 63, "unit": "%"},
      {"measurement": "viability, T/C", "setting": "[22]", "result": 63.8, "unit": "%"},
      {"measurement": "viability, T/C", "setting": "[23]", "result": 65.5, "unit": "%"},
      {"measurement": "viability, T/C", "setting": "[24]", "result": 53.4, "unit": "%"},
      {"measurement": "viability, T/C", "setting": "[25]", "result": 78.2, "unit": "%"},
      {"measurement": "viability, T/C", "setting": "[26]", "result": 83.7, "unit": "%"},
      {"measurement": "viability, T/C", "setting": "[27]", "result": 74, "unit": "%"},
      {"measurement": "viability, T/C", "setting": "[28]", "result": 68.1, "unit": "%"},
      {"measurement": "viability, T/C", "setting": "[29]", "result": 63, "unit": "%"},
      {"measurement": "viability, T/C", "setting": "[30]", "result": 52.7, "unit": "%"},
      {"measurement": "viability, T/C", "setting": "[31]", "result": 85.2, "unit": "%"},
      {"measurement": "viability, T/C", "setting": "[32]", "result": 70.9, "unit": "%"},
      {"measurement": "viability, T/C", "setting": "[33]", "result": 70.5, "unit": "%"},
      {"measurement": "viability, T/C", "setting": "[34]", "result": 51.4, "unit": "%"},
      {"measurement": "viability, T/C", "setting": "[35]", "result": 51.4, "unit": "%"},
      {"measurement": "viability, T/C", "setting": "[36]", "result": 43.5, "unit": "%"}
    ]}
  ]
}
